Experimental data taken from US7348421B1, “Methods for production of p-hydroxybenzoate in bacteria” (North Carolina State University, priority 2000, dated 2008).
Like-named read-outs stand apart in the source and are kept apart here.

Key:
[1] = octanol-water; cited from earlier work
PhoA5 pPAT7 = type: cell-based, Pseudomonas putida; details: for tolerance to paraben / tolerance to amino acid: PhoA5 pPAT7; for tolerance to paraben: same gradients; for tolerance to amino acid: gradient 0 to 50 g/L; for tolerance to aromatic carboxylic acids: PhoA5(pPAT7), double diffusion plates
P. putida PhoA5 = type: cell-based, Pseudomonas putida; details: for tolerance to paraben: same gradients; for tolerance to amino acid: gradient 0 to 50 g/L; for concentration that the strain tolerated: aromatic carboxylic acid gradient, 20 h at 30° C.
[2] = test system: Pseudomonas putida DOT-T1E (wild-type); type: cell-based; details: for tolerance to paraben / tolerance to amino acid: T1E; for tolerance to paraben: gradient up to 2, 1.54, 0.8, 0.3 g/L for methyl-, ethyl-, propyl-, butylparaben; for tolerance to amino acid: gradient 0 to 50 g/L; for concentration that the strain tolerated: Wild-type, aromatic carboxylic acid gradient, 20 h at 30° C.
T1E pPAT7 = type: cell-based, Pseudomonas putida; details: for tolerance to paraben: same gradients; for tolerance to amino acid: gradient 0 to 50 g/L
[3] = test system: Pseudomonas putida DOT-T1E; experiment: Halo-inhibition test with antibiotic disks on minimal medium; type: cell-based; details: for size of the inhibition halo: strain T1E, 6-mm disks, µg per disk as, minimal medium; for tolerance/sensitivity to antibiotic: wild-type, Halo-inhibition test
PhoA5 mutant = details: 3 μg/mL EDDHA, M9 with glucose; overcome by adding Fe-citrate
[4] = test system: wild-type strain (DOT-T1E); details: 3 μg/mL EDDHA, M9 with glucose
adapted strain = details: after 11 transfers; slow rate
DOT-T1E = type: cell-based, Pseudomonas putida; details: wild-type, 0.3% (vol/vol) toluene
toluene-tolerant strain = experiment: Enrichment selection in flasks, toluene; type: cell-based; details: slow rate of growth
Experimental: Using a similar procedure with toluene, a toluene-tolerant strain (with a slow rate of growth on 150 ppm of toluene) was obtained. Adding 10 mM MgSO4 increased the tolerance of the organism to toluene.

For `CCCCCCCCO` [1-octanol], the “log Pow” value [1] is listed as 2.8.

Compound `CCCCOC(=O)c1ccc(O)cc1` [BP, butylparabene] has a tolerance to paraben (PhoA5 pPAT7) greater than 0.3 g/L, a tolerance to paraben (P. putida PhoA5) greater than 0.3 g/L and a tolerance to paraben (P. putida PhoA5; listed as butylparaben) of no less than 0.3 g/L. It also gave a tolerance to paraben [2] greater than 0.3 g/L and a tolerance to paraben (T1E pPAT7) greater than 0.3 g/L.

For `O=C(O)c1cn(C2CC2)c2cc(N3CCNCC3)c(F)cc2c1=O` [CIP, ciprofloxacine], the “size of the inhibition halo” value [3] was 21 mm and the “tolerance/sensitivity to antibiotic” value [3] was “sensitive”.

In the case of `CO/N=C(\C(=O)N[C@@H]1C(=O)N2C(C(=O)O)=C(COC(C)=O)CS[C@H]12)c1csc(N)n1` [CTX, cefotaxime], the “size of the inhibition halo” value [3] is reported as 14 mm and the “tolerance/sensitivity to antibiotic” value [3] is reported as “sensitive”.

In the case of `CCOC(=O)c1ccc(O)cc1` [EB, ethylparabene], the tolerance to paraben (PhoA5 pPAT7) is reported as 1.54 g/L, the tolerance to paraben (PhoA5 pPAT7; listed as ethylparaben) is reported as “as tolerant as the wild-type strain” and the tolerance to paraben (P. putida PhoA5) is reported as roughly 1.4 g/L. It also gave a tolerance to paraben [2] greater than 1.54 g/L.

With `O=C(O)C(NCCNC(C(=O)O)c1ccccc1O)c1ccccc1O` (centres unmarked) [EDDHA, ethylenediamine-di (o-hydroxyphenylacetic acid)] the “growth in the presence of iron chelator” value (PhoA5 mutant) was “severely inhibited” and the “growth in the presence of iron chelator” value [4] was “grew under all culture conditions”.

With `N[C@@H](Cc1c[nH]cn1)C(=O)O` [Histidine, L-histidine] the “tolerance to amino acid” value (PhoA5 pPAT7) was 29.4 g/L, the “tolerance to amino acid” value (P. putida PhoA5) was 22.3 g/L and the “tolerance to amino acid” value (P. putida PhoA5; listed as histidine) was “about 23 g/L”. For the same compound, the “tolerance to amino acid” value [2] was 31.2 g/L, the “tolerance to amino acid” value ([2]; listed as histidine) was roughly 31 g/L and the “tolerance to amino acid” value (T1E pPAT7) was 30.6 g/L.

In the case of `C[C@@H](O)[C@H]1C(=O)N2C(C(=O)O)=C(SCCN=CN)C[C@H]12` [IPM, imipenen], the “size of the inhibition halo” value [3] is reported as 26 mm and the “tolerance/sensitivity to antibiotic” value [3] is reported as “sensitive”.

For `COC(=O)c1ccc(O)cc1` [MB, methylparabene], the tolerance to paraben (PhoA5 pPAT7) was greater than 2.0 g/L, the tolerance to paraben (PhoA5 pPAT7; listed as methylparaben) was “as tolerant as the wild-type strain” and the tolerance to paraben (P. putida PhoA5) was 1.0 g/L. The tolerance to paraben (P. putida PhoA5; listed as methylparaben) was “about 1 g/L”, the tolerance to paraben [2] was greater than 2 g/L and the tolerance to paraben (T1E pPAT7) was greater than 2 g/L.

For `CCn1cc(C(=O)O)c(=O)c2ccc(C)nc21` [NA, nalidixic acid], the “size of the inhibition halo” value [3] was 15 mm and the “tolerance/sensitivity to antibiotic” value [3] was “equally sensitive”.

With `CCn1cc(C(=O)O)c(=O)c2cc(F)c(N3CCNCC3)cc21` [NOR, norfloxacine] the “size of the inhibition halo” value [3] was 20 mm and the “tolerance/sensitivity to antibiotic” value [3] was “sensitive”.

In the case of `CCCOC(=O)c1ccc(O)cc1` [PB, propylparabene], the tolerance to paraben (PhoA5 pPAT7) is reported as greater than 0.8 g/L, the tolerance to paraben (P. putida PhoA5) is reported as greater than 0.8 g/L and the tolerance to paraben (P. putida PhoA5; listed as propylparaben) is reported as “at least 0.8 g/L”. It also gave a tolerance to paraben [2] greater than 0.8 g/L and a tolerance to paraben (T1E pPAT7) greater than 0.8 g/L.

With `CCN1CCN(C(=O)N[C@@H](C(=O)N[C@@H]2C(=O)N3[C@@H]2SC(C)(C)[C@@H]3C(=O)O)c2ccccc2)C(=O)C1=O` [PIP, piperacillin] the “size of the inhibition halo” value [3] was 18 mm and the “tolerance/sensitivity to antibiotic” value [3] was “equally sensitive”.

For `[H]/N=C(/N)N[C@H]1[C@H](O)[C@@H](O)[C@H](O[C@@H]2O[C@@H](C)[C@](O)(C=O)[C@H]2O[C@@H]2O[C@@H](CO)[C@H](O)[C@@H](O)[C@@H]2NC)[C@@H](N/C(N)=N\[H])[C@@H]1O` [SM, streptomycin], the “size of the inhibition halo” value [3] was 16 mm and the “tolerance/sensitivity to antibiotic” value [3] was “equally sensitive”.

In the case of `CN(C)[C@@H]1C(O)=C(C(N)=O)C(=O)[C@@]2(O)C(O)=C3C(=O)c4c(O)cccc4[C@@](C)(O)[C@H]3C[C@@H]12` [TE, tetracycline], the “size of the inhibition halo” value [3] is reported as 21 mm.

In the case of `N[C@@H](Cc1c[nH]c2ccccc12)C(=O)O` [Tryptophan, L-tryptophan], the “tolerance to amino acid” value (PhoA5 pPAT7) is reported as 22.9 g/L, the “tolerance to amino acid” value (PhoA5 pPAT7; listed as tryptophan) is reported as “more sensitive than the wild-type” and the “tolerance to amino acid” value (P. putida PhoA5) is reported as 23.5 g/L. For the same compound, the “tolerance to amino acid” value (P. putida PhoA5; listed as tryptophan) was “about 23 g/L”, the “tolerance to amino acid” value [2] was 35.3 g/L and the “tolerance to amino acid” value ([2]; listed as tryptophan) was roughly 35 g/L. For the same compound, the “tolerance to amino acid” value (T1E pPAT7) was 38.8 g/L.

In the case of `N[C@@H](Cc1ccc(O)cc1)C(=O)O` [Tyrosine, L-tyrosine], the “tolerance to amino acid” value (P. putida PhoA5) is reported as 25.3 g/L, the “tolerance to amino acid” value (P. putida PhoA5; listed as tyrosine) is reported as “about 23 g/L” and the “tolerance to amino acid” value [2] is reported as “about 40 g/L”.

For `CC(=O)O` [acetate], the “acetate concentration at which the adapted strain was able to grow” value (adapted strain) was 200 mM.

In the case of `CC1(C)S[C@@H]2[C@H](NC(=O)[C@H](N)c3ccccc3)C(=O)N2[C@H]1C(=O)O` [ampicillin], the “tolerance/sensitivity to antibiotic” value [3] is reported as “tolerant”.

For `C1CCCCC1` [cyclohexane], the “log Pow” value [1] is given as 3.2.

In the case of `CC[C@H]1OC(=O)[C@H](C)[C@@H](O[C@H]2C[C@@](C)(OC)[C@@H](O)[C@H](C)O2)[C@H](C)[C@@H](O[C@@H]2O[C@H](C)C[C@H](N(C)C)[C@H]2O)[C@](C)(O)C[C@@H](C)C(=O)[C@H](C)[C@@H](O)[C@]1(C)O` [erythromycin], the “tolerance/sensitivity to antibiotic” value [3] is reported as “tolerant”.

In the case of `CCc1ccccc1` [ethylbenzene], the “log Pow” value [1] is listed as 3.1.

For `CCCCCCC` [heptane], the “log Pow” value [1] is given as 4.5.

For `Nc1cccc(C(=O)O)c1` [m-aminobenzoate], the “tolerance to aromatic carboxylic acids” value (PhoA5 pPAT7) was “as tolerant as the wild-type”, the “concentration that the strain tolerated” value (P. putida PhoA5) was 7.5 g/L and the “concentration that the strain tolerated” value [2] was 14.8 g/L.

In the case of `O=C(O)c1cccc(Cl)c1` [m-chlorobenzoate], the “tolerance to aromatic carboxylic acids” value (PhoA5 pPAT7) is reported as “as tolerant as the wild-type”, the “concentration that the strain tolerated” value (P. putida PhoA5) is reported as 3.0 g/L and the “concentration that the strain tolerated” value [2] is reported as 4.5 g/L.

With `COc1cccc(C(=O)O)c1` [m-methoxybenzoate] the “tolerance to aromatic carboxylic acids” value (PhoA5 pPAT7) was “as tolerant as the wild-type”, the “concentration that the strain tolerated” value (P. putida PhoA5) was 7.2 g/L and the “concentration that the strain tolerated” value [2] was 12 g/L.

With `Nc1ccccc1C(=O)O` [o-aminobenzoate] the “tolerance to aromatic carboxylic acids” value (PhoA5 pPAT7) was “as tolerant as the wild-type”, the “concentration that the strain tolerated” value (P. putida PhoA5) was 5.0 g/L and the “concentration that the strain tolerated” value [2] was 8.7 g/L.

With `O=C(O)c1ccccc1Cl` [o-chlorobenzoate] the “tolerance to aromatic carboxylic acids” value (PhoA5 pPAT7) was “as tolerant as the wild-type”, the “concentration that the strain tolerated” value (P. putida PhoA5) was 6.0 g/L and the “concentration that the strain tolerated” value [2] was 14.5 g/L.

In the case of `COc1ccccc1C(=O)O` [o-methoxybenzoate], the “tolerance to aromatic carboxylic acids” value (PhoA5 pPAT7) is reported as “as tolerant as the wild-type”, the “concentration that the strain tolerated” value (P. putida PhoA5) is reported as 8.5 g/L and the “concentration that the strain tolerated” value [2] is reported as 17 g/L.

With `Nc1ccc(C(=O)O)cc1` [p-aminobenzoate] the “tolerance to aromatic carboxylic acids” value (PhoA5 pPAT7) was “as tolerant as the wild-type”, the “concentration that the strain tolerated” value (P. putida PhoA5) was 7.8 g/L and the “concentration that the strain tolerated” value [2] was 13.0 g/L.

With `Cc1ccc(C(=O)O)cc1` [p-methylbenzoate] the “tolerance to aromatic carboxylic acids” value (PhoA5 pPAT7) was “as tolerant as the wild-type”, the “concentration that the strain tolerated” value (P. putida PhoA5) was 7.4 g/L and the “concentration that the strain tolerated” value [2] was 14.5 g/L.

For `Cc1ccc(C)cc1` [p-xylene], the “log Pow” value [1] is given as 3.0.

For `CCCc1ccccc1` [propylbenzene], the “log Pow” value [1] is given as 3.6.

With `Cc1ccccc1` [toluene] the “survival of toluene shock” value (DOT-T1E; cells pre-exposed to toluene in the gas phase) was “tolerated the shock”, the “loss of viability after sudden exposure to toluene” value (DOT-T1E; non-pre-exposed cells) was 5 orders of magnitude and the “toluene concentration at which the strain grew” value (toluene-tolerant strain) was 150 ppm.

In the case of `CN[C@H](CC(C)C)C(=O)N[C@H]1C(=O)N[C@@H](CC(N)=O)C(=O)N[C@H]2C(=O)N[C@H]3C(=O)N[C@H](C(=O)N[C@H](C(=O)O)c4cc(O)cc(O)c4-c4cc3ccc4O)[C@H](O)c3ccc(c(Cl)c3)Oc3cc2cc(c3O[C@@H]2O[C@H](CO)[C@@H](O)[C@H](O)[C@H]2O[C@H]2C[C@](C)(N)[C@H](O)[C@H](C)O2)Oc2ccc(cc2Cl)[C@H]1O` [vancomycin], the “tolerance/sensitivity to antibiotic” value [3] is reported as “tolerant”.

With gentamycin [GM] the “size of the inhibition halo” value [3] was 17 mm and the “tolerance/sensitivity to antibiotic” value [3] was “equally sensitive”.

In the case of p-methoxybenzoate, the “tolerance to aromatic carboxylic acids” value (PhoA5 pPAT7) is reported as “as tolerant as the wild-type”, the “concentration that the strain tolerated” value (P. putida PhoA5) is reported as 9.1 g/L and the “concentration that the strain tolerated” value [2] is reported as 19 g/L.
